Like-named read-outs stand apart in the source and are kept apart here.
Tests used:
[1] = system: LNcap cells; experiment: Inhibitory effect on proliferation of LNcap cells (CCK-8, 72 h); type: cell-based; conditions: Homo sapiens, LNcap cells, CCK-8, read-out: LNcap cells IC50
Method: A dish of LNcap cells (human prostate cancer cells with PTEN deficiency) growing at log phase and in good conditions were taken and digested for 3 min by using 1 mL of pancreatin, then the mixture was added with 4 mL of complete culture medium to terminate digestion, and the cells were added to a centrifuge tube. 20 μL of cells were taken and counted, the required number of cells (mL) was pipetted and centrifuged at 1200 rpm for 5 min, the supernatant was discarded, and an appropriate amount of plating medium (RPMI medium+5% FBS+1% sodium pyruvate+1% glutamine) was added to adjust the cell density to 3×10^4 cells/mL. The cells were seeded on a 96-well plate at 100 μL/well using a multi-channel pipette and cultured in a cell incubator at 37° C., 5% CO2 and saturated humidity. After incubation overnight, compounds were loaded using a nanoliter pipettor, 2 duplicate wells were set for each concentration, and cells without compound were used as negative controls. After 72 h, CCK-8 was added at 10 μL/well for incubation for 4 h, then absorbance was measured at 450 nm with an Envision plate reader, and inhibition rate was calculated. Inhibition rate (%)=(mean value of negative control group−mean value of experimental group)/(mean value of negative control group−mean value of blank group)×100%. A dose-response curve was fitted by four-parameter analysis, with the logarithm of compound concentration as abscissa and inhibition rate as ordinate, so that IC50 was calculated.

[2] = biological target: T1, AKT1 (S473) (Homo sapiens, UniProt P31749); experiment: Inhibitory effect on phosphorylation of LNcap cells AKT1 (S473); type: cell-based; conditions: 1 h incubation
T1 construct: endogenous in cells; host or cells: LNcap cells
Method: LNcap cells AKT1 (S473) growing at log phase were taken, digested with 1 mL of pancreatin for 3 min, and added with 4 mL of complete medium to terminate digestion. The cells were added to a centrifuge tube. 20 μL of cells were taken and counted, the required number of cells (mL) was taken and centrifuged at 1200 rpm for 5 min, and a plating medium (2% FBS+phenol-free red 1640 base medium+1% sodium pyruvate+1% glutamine) was added to adjust the cell density to about 1×10E6 cells/mL. The cells were plated (96 wells) at the above cell density (100 μL/well), and cultured in a cell incubator at 37° C., 5% CO2 overnight; the next day, according to the plate distribution, the corresponding compound was sprayed using a nanoliter pipettor and incubated for 1 h at 37° C. in a cell incubator containing 5% CO2; the supernatant was discarded, and the plate was added with 40 μL of lysis buffer (1×) containing blocking buffer and incubated by shaking at room temperature for 30 min. After the mixture was mixed, 16 μL of lysate was transferred to another 384-well small-volume white plate. The plate was added with 4 μL of pre-mixed antibody (v/v) in assay buffer, covered, centrifuged to mix well, and incubated overnight at room temperature. The 665 nm/620 nm signal value was detected using a PE Envision multi-functional microplate reader, and IC50 was calculated by four-parameter fitting.

[3] = Pharmacokinetic evaluation in mice; type: in vivo; parameters: Cl: unit not given here; conditions: ICR mice; for AUC(0-inf) / AUC(0-t) / Cmax / Tmax / bioavailability / MRT last / Vd: mouse, plasma; for bioavailability: IG 10 mg/kg vs IV 1 mg/kg, read-out: Absolute bioavailability F %; for MRT last: read-out: MRT(0-t)
Method: ICR mice, weight 18-22 g, after adaption for 3-5 days, were randomly divided into 4 groups of 9 mice, each group was intragastrically (IG) administered with compound 28 or compound 30 at a dose of 10 mg/kg, or intravenously (IV) administered with compound 28 or compound 30 at a dose of 1 mg/kg.
The animals to be tested (ICR mice) were fasted for 12 h before administration and food was provided 4 h after administration, and water was freely drunk before and after the experiment and during the experiment.
After intragastric administration, about 0.1 mL of blood was taken from eye sockets at 15 min, 30 min, 1 h, 2 h, 3 h, 4 h, 6 h, 8 h, 10 h, and 24 h; after intravenous injection, about 0.1 mL of blood was taken from eye sockets at 5 min, 10 min, 30 min, 1 h, 2 h, 4 h, 6 h, 8 h, 10 h, and 24 h; each mouse was collected at 3-4 time points and 3 mice were collected at each time point, whole blood was collected, placed in centrifuge tubes containing EDTA-K2, and stored at 4° C. within 1 h, and the plasma was separated off by centrifugation at 4° C. and 4000 rpm for 10 min. All the plasma samples were collected and immediately stored at −20° C. for testing. 30 μL of the plasma sample to be tested and a standard curve sample were pipetted and added with 300 μL of acetonitrile solution containing an internal standard (20 ng/mL diazepam), shaken and mixed well for 5 min, and centrifuged at 13,000 rpm for 10 min. 80 μL of supernatant was taken and diluted with 80 μL of ultrapure water. After being mixed well, 2 μL of the resulting sample was taken for liquid chromatography-mass determination, and a chromatogram was recorded.
Oral and intravenous exposure of the compound of the present application was evaluated by in vivo pharmacokinetic experiment in mice.

T1 sequence (P31749 whole entry): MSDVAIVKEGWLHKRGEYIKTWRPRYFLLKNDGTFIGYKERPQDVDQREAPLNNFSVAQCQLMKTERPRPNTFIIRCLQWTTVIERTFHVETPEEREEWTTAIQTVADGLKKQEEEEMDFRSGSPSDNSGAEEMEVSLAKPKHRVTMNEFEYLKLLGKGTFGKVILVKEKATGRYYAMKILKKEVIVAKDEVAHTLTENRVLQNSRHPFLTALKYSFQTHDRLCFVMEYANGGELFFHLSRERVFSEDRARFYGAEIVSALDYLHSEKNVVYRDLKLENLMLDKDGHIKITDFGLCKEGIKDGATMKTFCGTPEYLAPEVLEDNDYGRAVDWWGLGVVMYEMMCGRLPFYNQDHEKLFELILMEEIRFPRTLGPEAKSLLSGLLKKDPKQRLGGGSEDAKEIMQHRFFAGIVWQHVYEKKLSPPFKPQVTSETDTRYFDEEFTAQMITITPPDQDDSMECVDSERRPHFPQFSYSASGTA

Compound | IC50 [1] [nM] | IC50 [2] [nM] | t1/2z ([3]; IG 10 mg/kg) [h] | Cl ([3]; IV 1 mg/kg) | t1/2z ([3]; IV 1 mg/kg) [h] | AUC(0-inf) ([3]; po, IG 10 mg/kg) [ng·h/mL] | AUC(0-t) ([3]; po, IG 10 mg/kg) [ng·h/mL] | Cmax ([3]; po, IG 10 mg/kg) [ng/mL] | Tmax ([3]; po, IG 10 mg/kg) [h] | bioavailability ([3]; po) [%] | MRT last ([3]; po, IG 10 mg/kg) [h] | AUC(0-inf) ([3]; IV 1 mg/kg) [ng·h/mL] | AUC(0-t) ([3]; IV 1 mg/kg) [ng·h/mL] | Vd ([3]; IV 1 mg/kg) [L/kg] | MRT last ([3]; IV 1 mg/kg) [h]
CC(=O)N1CC2(CCN(c3cccc(-c4ccc5nc(-c6cccnc6N)n(-c6ccc(C7(N)CCC7)cc6)c5n4)c3F)CC2)C1 [Compound 44] | 1.7 | 12 | 3.61 | 0.206 | 1.34 | 25100 | 25000 | 4960 | 2 | 51.7 | 3.58 | 4840 | 4840 | 0.398 | 0.817
CN1CC2(CCN(c3cccc(-c4ccc5nc(-c6cccnc6N)n(-c6ccc(C7(N)CCC7)cc6)c5n4)c3F)CC2)CC1=O [Compound 45] | 1.7 | 7.7 | 2.06 | 0.23 | 1.159 | 14500 | 14500 | 4020 | 0.25 | 34.3 | 3.95 | 4340 | 4240 | 5.42 | 1.18
